# Laboratory results reported in the supplement of paper PMC11061612.
# Key:
# Assay in all cases: combination Emax (second highest fraction inhibited in the dose matrix, 72 h); higher = more inhibition; extreme values may be limits of the assay
# [1] = test system: NCI-H1568 (Lung Adenocarcinoma)
# Method in brief: (§1)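 After 24 hours at 37°C and 5% CO2 in 1536-well plates, cells in DMEM/F12 or RPMI plus 10% FBS received two-drug dose matrices for 72 hours. Viability came from CellTiter-Glo 2.0 luminescence and was scaled as inhibition, anchored at 0 by vehicle wells and at 1 by blank wells. Combination Emax is taken as the second-highest inhibition in the matrix, and Bliss excess as the observed combination effect less EA + EB − EA·EB, with EA and EB the single-agent effects.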
# [2] = test system: Detroit562 (Head and Neck Carcinoma)
# Method in brief: as §1
# [3] = test system: NCI-H209 (Small Cell Lung Carcinoma)
# Method in brief: as §1
# [4] = test system: LCLC-97TM1 (Non-Small Cell Lung Carcinoma)
# Method in brief: as §1
# [5] = test system: MPP-89 (Mesothelioma)
# Method in brief: as §1
# [6] = test system: GAMG (Glioblastoma)
# Method in brief: as §1
# [7] = test system: OV-56 (Ovarian Carcinoma)
# Method in brief: as §1
# [8] = test system: NCI-H2052 (Mesothelioma)
# Method in brief: as §1
# [9] = test system: BE-13 (T-Lymphoblastic Leukemia)
# Method in brief: as §1
# [10] = test system: HuH-7 (Hepatocellular Carcinoma)
# Method in brief: as §1
# [11] = test system: KYAE-1 (Esophageal Adenocarcinoma)
# Method in brief: as §1
# [12] = test system: SW1710 (Bladder Carcinoma)
# Method in brief: as §1
# [13] = test system: CAL-33 (Oral Cavity Carcinoma)
# Method in brief: as §1
# [14] = test system: KMRC-20 (Kidney Carcinoma)
# Method in brief: as §1
# [15] = test system: BE2-M17 (Neuroblastoma)
# Method in brief: as §1
# [16] = test system: YAPC (Pancreatic Carcinoma)
# Method in brief: as §1
# [17] = test system: SNU-16 (Gastric Carcinoma)
# Method in brief: as §1
# [18] = test system: KS-1 (Glioblastoma)
# Method in brief: as §1
# [19] = test system: NCI-H2722 (Mesothelioma)
# Method in brief: as §1
# [20] = test system: NCI-H524 (Small Cell Lung Carcinoma)
# Method in brief: as §1
SMILES,combination Emax [1],combination Emax [2],combination Emax [3],combination Emax [4],combination Emax [5],combination Emax [6],combination Emax [7],combination Emax [8],combination Emax [9],combination Emax [10],combination Emax [11],combination Emax [12],combination Emax [13],combination Emax [14],combination Emax [15],combination Emax [16],combination Emax [17],combination Emax [18],combination Emax [19],combination Emax [20]
"CN(CCO)CC[C@H](CSc1ccccc1)Nc1ccc(S(=O)(=O)NC(=O)c2ccc(N3CCC([C@@H](O)c4ccccc4-c4ccc(Cl)cc4)CC3)cc2)cc1S(=O)(=O)C(F)(F)F [AZD4320] + C=CCn1c(=O)c2cnc(Nc3ccc(N4CCN(C)CC4)cc3)nc2n1-c1cccc(C(C)(C)O)n1 [AZD1775] (first compound max 1 µM, partner max 1 µM)",0.57,0.684,1,0.933,0.628,0.643,0.165,0.374,1,0.729,0.843,0.418,0.859,0.61,0.92,0.278,0.917,0.549,0.55,0.952
"NC1(C(=O)N[C@@H](CCO)c2ccc(Cl)cc2)CCN(c2ncnc3[nH]ccc23)CC1 [Capivasertib] + C[C@@H]1COCCN1C2=NC(=NC(=C2)C3(CC3)[S@](=N)(=O)C)C4=C5C=CNC5=NC=C4 [AZD6738] (first compound max 10 µM, 7x7, partner max 10 µM)",0.664,0.918,0.9,0.873,0.545,0.705,0.542,0.57,0.731,0.453,0.165,0.596,0.918,0.647,0.702,0.334,0.973,0.653,0.533,0.712
"COc1cccc(OCCCN)c1-c1cc(Nc2cnc(C#N)cn2)n[nH]1 [Prexasertib] + CN(C)CCCOc1ccc(-c2ccc3ncc4c(c3c2)n(C2CCOCC2)c(=O)n4C)cn1 [AZD0156] (first compound max 1 µM, 7x7, partner max 1 µM)",0.538,0.922,0.94,0.925,0.724,0.843,0.895,0.556,0.965,0.347,0.594,0.794,0.807,0.924,0.983,0.559,1,0.581,0.193,0.97
"COc1nnc2ccc(N3CCC(c4ccc(OCCN5CCN(C)C(=O)[C@H]5C)cc4)CC3)nn12 [AZD5153] + Cc1c2c(nn1C)CSCc1cc(n(C)n1)CSc1cc(c3ccccc3c1)OCCCc1c(C(=O)O)n(C)c3c-2c(Cl)ccc13 [AZD5991] (first compound max 1 µM, 7x7, partner max 1 µM)",0.393,0.877,0.981,0.733,0.581,0.425,0.351,0.328,0.998,0.755,0.0912,0.355,0.628,0.37,0.847,0.365,1,0.629,0.508,0.934
"Cc1c2c(nn1C)CSCc1cc(n(C)n1)CSc1cc(c3ccccc3c1)OCCCc1c(C(=O)O)n(C)c3c-2c(Cl)ccc13 [AZD5991] + Cn1cnc2c(F)c(Nc3ccc(Br)cc3Cl)c(C(=O)NOCCO)cc21 [Selumetinib] (first compound max 1 µM, 7x7, partner max 3 µM)",0.563,0.365,0.402,0.694,0.193,0.299,0.189,0.314,0.449,0.301,0.163,0.256,0.411,0.196,0.956,0.209,0.989,0.31,0.238,0.336
"CC1(C)CCC(CN2CCN(c3ccc(C(=O)NS(=O)(=O)c4ccc(NCC5CCOCC5)c([N+](=O)[O-])c4)c(Oc4cnc5[nH]ccc5c4)c3)CC2)=C(c2ccc(Cl)cc2)C1 [Venetoclax] + COc1cc(Nc2ncc3c(n2)-c2ccc(Cl)cc2C(c2c(F)cccc2OC)=NC3)ccc1C(=O)O [Alisertib] (first compound max 1 µM, 7x7, partner max 10 µM)",0.259,0.754,0.891,0.497,0.566,0.662,0.225,0.425,0.918,0.791,0.128,0.306,0.714,0.654,0.901,0.142,0.955,0.635,0.281,0.991
"Cn1cnc2c(F)c(Nc3ccc(Br)cc3Cl)c(C(=O)NOCCO)cc21 [Selumetinib] + CC(C)n1c(=O)n(C)c2cnc3cc(F)c(-c4ccc(OCCCN5CCCCC5)nc4)cc3c21 [AZD1390] (first compound max 10 µM, 7x7, partner max 0.3 µM)",0.142,0.367,0.0904,0.528,0.0892,0.151,0.133,0.193,0.179,0.275,0.144,0.196,0.755,0.131,0.508,0.193,0.36,0.197,0.0639,0.0936
"CS(=O)(=O)CCNCc1ccc(-c2ccc3ncnc(Nc4ccc(OCc5cccc(F)c5)c(Cl)c4)c3c2)o1 [Lapatinib] + C[C@@H](Oc1cc(-c2cnn(C3CCNCC3)c2)cnc1N)c1c(Cl)ccc(F)c1Cl [Crizotinib] (first compound max 10 µM, 7x7, partner max 10 µM)",0.952,1,0.927,0.979,0.696,0.82,0.872,0.61,0.988,0.925,0.842,0.846,0.989,0.916,0.868,0.636,0.973,0.79,0.449,0.952
"CC1(C)CCC(CN2CCN(c3ccc(C(=O)NS(=O)(=O)c4ccc(NCC5CCOCC5)c([N+](=O)[O-])c4)c(Oc4cnc5[nH]ccc5c4)c3)CC2)=C(c2ccc(Cl)cc2)C1 [Venetoclax] + Cc1cc2ncnn2cc1Nc1ncc2c(n1)n(C1CCOCC1)c(=O)n2C [AZD7648] (first compound max 1 µM, 7x7, partner max 10 µM)",0.135,0.304,0.642,0.2,0.418,0.377,0.15,0.381,0.529,0.221,0.176,0.248,0.329,0.288,0.276,0.2,0.223,0.294,0.25,0.308
"CC(=O)c1c(C)c2cnc(Nc3ccc(N4CCNCC4)cn3)nc2n(C2CCCC2)c1=O [Palbociclib] + Cn1cnc2c(F)c(Nc3ccc(Br)cc3Cl)c(C(=O)NOCCO)cc21 [Selumetinib] (first compound max 10 µM, 7x7, partner max 10 µM)",0.206,0.588,0.594,0.64,0.14,0.314,0.141,0.189,0.691,0.344,0.124,0.339,0.382,0.158,0.606,0.379,0.771,0.438,0.113,0.739
"COc1cccc(OCCCN)c1-c1cc(Nc2cnc(C#N)cn2)n[nH]1 [Prexasertib] + O=C(c1cc(Cc2n[nH]c(=O)c3ccccc23)ccc1F)N1CCN(C(=O)C2CC2)CC1 [Olaparib] (first compound max 1 µM, 7x7, partner max 10 µM)",0.481,0.922,0.965,0.936,0.714,0.83,0.89,0.589,0.978,0.3,0.56,0.761,0.833,0.893,0.958,0.597,1,0.628,0.234,0.929
"COc1nnc2ccc(N3CCC(c4ccc(OCCN5CCN(C)C(=O)[C@H]5C)cc4)CC3)nn12 [AZD5153] + CC1(C)CCC(CN2CCN(c3ccc(C(=O)NS(=O)(=O)c4ccc(NCC5CCOCC5)c([N+](=O)[O-])c4)c(Oc4cnc5[nH]ccc5c4)c3)CC2)=C(c2ccc(Cl)cc2)C1 [Venetoclax] (first compound max 1 µM, 7x7, partner max 1 µM)",0.251,0.8,0.727,0.685,0.497,0.436,0.24,0.359,0.708,0.442,0.0501,0.291,0.402,0.452,0.621,0.384,0.731,0.649,0.471,0.694
